According to patent publication US9783536B2, “Nitrogen-containing heterocyclic compound or salt thereof” (FUJIFILM Corporation, priority 2013, dated 2017):
Where two headings read alike, the source gives them in different places.

Assays:
human PI3Kα protein = target: T1, human PI3Kα protein (Homo sapiens, UniProt P42336); assay: PI3Kα enzyme assay (ADP-Glo); assay type: biochemical; conditions: read-out: PI3Kα enzyme inhibitory activity
T1 construct: purchased Carna Biosciences, Inc; host or cells: baculovirus expression system
T1 sequence (P42336 whole entry): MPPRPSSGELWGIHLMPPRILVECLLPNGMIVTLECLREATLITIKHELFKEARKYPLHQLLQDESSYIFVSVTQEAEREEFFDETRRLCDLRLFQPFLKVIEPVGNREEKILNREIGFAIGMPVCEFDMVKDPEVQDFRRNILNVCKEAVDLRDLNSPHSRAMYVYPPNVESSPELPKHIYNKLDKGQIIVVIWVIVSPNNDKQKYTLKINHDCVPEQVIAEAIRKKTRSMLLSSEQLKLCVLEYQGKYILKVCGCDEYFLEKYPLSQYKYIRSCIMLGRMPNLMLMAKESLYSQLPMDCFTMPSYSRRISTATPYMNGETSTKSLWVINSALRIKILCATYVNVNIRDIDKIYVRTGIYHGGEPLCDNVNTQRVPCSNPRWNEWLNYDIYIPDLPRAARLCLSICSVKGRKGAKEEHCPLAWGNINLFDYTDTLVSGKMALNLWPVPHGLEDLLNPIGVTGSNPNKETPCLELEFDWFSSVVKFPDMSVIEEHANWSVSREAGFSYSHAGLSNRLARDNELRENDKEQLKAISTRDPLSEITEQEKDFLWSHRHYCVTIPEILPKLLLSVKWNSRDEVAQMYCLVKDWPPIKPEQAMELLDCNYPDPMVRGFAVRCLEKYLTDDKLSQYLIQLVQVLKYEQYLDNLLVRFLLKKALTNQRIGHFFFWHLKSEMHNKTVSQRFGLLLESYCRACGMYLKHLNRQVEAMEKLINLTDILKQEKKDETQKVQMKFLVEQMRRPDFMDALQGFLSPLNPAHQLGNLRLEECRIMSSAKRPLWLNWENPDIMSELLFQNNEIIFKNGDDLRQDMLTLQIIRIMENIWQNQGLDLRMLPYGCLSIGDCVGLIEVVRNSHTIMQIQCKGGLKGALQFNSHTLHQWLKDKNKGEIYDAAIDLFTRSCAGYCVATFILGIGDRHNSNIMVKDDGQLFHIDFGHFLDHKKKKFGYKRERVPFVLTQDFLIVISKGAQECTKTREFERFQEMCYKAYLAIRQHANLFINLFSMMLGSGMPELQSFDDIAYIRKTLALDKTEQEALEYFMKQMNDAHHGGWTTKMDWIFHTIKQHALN
T1 sequence (P27986 whole entry partner): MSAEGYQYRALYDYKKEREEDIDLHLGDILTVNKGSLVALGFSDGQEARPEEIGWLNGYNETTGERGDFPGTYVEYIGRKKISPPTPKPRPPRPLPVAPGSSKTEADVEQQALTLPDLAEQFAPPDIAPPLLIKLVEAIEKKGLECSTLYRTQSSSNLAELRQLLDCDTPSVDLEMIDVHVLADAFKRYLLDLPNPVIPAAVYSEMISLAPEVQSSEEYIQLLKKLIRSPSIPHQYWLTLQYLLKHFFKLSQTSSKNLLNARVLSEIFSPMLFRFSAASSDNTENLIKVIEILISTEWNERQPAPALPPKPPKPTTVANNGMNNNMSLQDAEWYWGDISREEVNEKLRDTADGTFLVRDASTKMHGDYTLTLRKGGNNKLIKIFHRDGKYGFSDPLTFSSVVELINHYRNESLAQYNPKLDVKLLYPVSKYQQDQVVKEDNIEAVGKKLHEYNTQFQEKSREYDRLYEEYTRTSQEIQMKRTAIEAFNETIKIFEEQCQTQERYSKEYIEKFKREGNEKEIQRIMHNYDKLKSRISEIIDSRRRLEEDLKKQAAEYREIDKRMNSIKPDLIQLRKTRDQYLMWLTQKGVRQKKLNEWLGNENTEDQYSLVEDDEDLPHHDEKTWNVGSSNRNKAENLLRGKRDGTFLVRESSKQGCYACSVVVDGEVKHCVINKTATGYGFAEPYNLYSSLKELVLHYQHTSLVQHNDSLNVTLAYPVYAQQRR
Procedure, shortened: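 Biotinylated human PI3Kα (baculovirus-expressed, 4.5 nmol/L) pre-incubated 15 min with compound in Tris-HCl pH 7.5, MgCl2, BSA; reaction 60 min at 25° C with 50 μmol/L PIP2 and 100 μmol/L ATP final. ADP quantified by ADP-Glo luminescence; IC50 calculated.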

CHO-K1 cells = assay: CHO cell toxicity test; assay type: cell-based, Chinese hamster; conditions: Cricetulus griseus; CHO-K1 cells, 24 hours culture with compound, CellTiter-Glo; read-out: IC50 value (concentration at which the number of viable cells was suppressed to 50% or less)
Procedure, shortened: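 CHO-K1 cells were cultured 24 h, then exposed 24 h to compound at final 25.00 to 0.20 μmol/L in F-12 with 2% FCS. Viability read by CellTiter-Glo luminescence; inhibition % = 100 − (treated/untreated signal)×100.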

[1] = target: T2, GST fusion human ERK2 protein (Homo sapiens, UniProt P28482); assay: ERK2 enzyme assay (2); assay type: biochemical; conditions: read-out: ERK2 enzyme inhibitory activity (2)
T2 construct: purchased Carna Biosciences, Inc; host or cells: E. coli expression system
T2 sequence (P28482 whole entry, the tested form may be a part): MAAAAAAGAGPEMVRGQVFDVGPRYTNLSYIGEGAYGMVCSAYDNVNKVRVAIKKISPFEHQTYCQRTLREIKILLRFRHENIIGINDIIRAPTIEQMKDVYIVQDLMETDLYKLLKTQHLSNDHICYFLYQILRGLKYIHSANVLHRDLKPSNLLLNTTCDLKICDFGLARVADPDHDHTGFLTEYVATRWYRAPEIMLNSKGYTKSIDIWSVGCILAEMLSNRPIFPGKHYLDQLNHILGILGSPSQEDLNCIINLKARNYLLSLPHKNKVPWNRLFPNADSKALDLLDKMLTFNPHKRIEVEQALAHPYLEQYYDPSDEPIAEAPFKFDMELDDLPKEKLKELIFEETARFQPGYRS
Procedure, shortened: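 IC50 values come from mobility-shift measurement of phosphorylated versus unphosphorylated 5-FAM peptide substrate after EDTA quench. Beforehand, compound and 1.25 nmol/L E. coli-expressed GST–human ERK2 stood 15 min at room temperature (pH 7.5), then 1 mmol/L ATP and 4.25 μmol/L substrate (final) were added for 120 min at 25 °C.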

[2] = target: T2, GST fusion human ERK2 protein; assay: ERK2 enzyme assay (1); assay type: biochemical; conditions: read-out: ERK2 enzyme inhibitory activity (1)
Procedure, shortened: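 IC50 derived from the proportion of phosphorylated 5-FAM peptide, separated from unphosphorylated peptide by microfluidic mobility shift. Compound was first preincubated 15 min at room temperature with 2.5 nmol/L kinase at pH 7.5, then 43.1 μmol/L ATP plus 4.25 μmol/L substrate reacted 120 min at 25 °C.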

[3] = 4.5 nmol/L PI3Kα, PIP2 50 μmol/L, ATP 100 μmol/L
[4] = 2.5 nmol/L ERK2, ATP 43.1 μmol/L

Compound	IC50 (human PI3Kα protein; [3]) [nM]	IC50 (CHO-K1 cells) [nM]	IC50 ([1]; 1.25 nmol/L ERK2, ATP 1 mmol/L) [nM]	IC50 [2, 4] [nM]	IC50 (human PI3Kα protein) [nM]	IC50 ([1]; ERK2 enzyme assay (2)) [nM]	IC50 ([2]; ERK2 enzyme assay (1)) [nM]
CC(C)c1cnnc(Nc2ccc3ncc(-c4cnn(C)c4)cc3n2)c1 [Example 0145]	< 1000	≥ 25000	< 1000	< 1000	–	–	–
Cc1nn(CCCN2CCCC2)cc1-c1cnc2ccc(Nc3nnc(C(C)C)s3)nc2c1 [Example 0321, 5-isopropyl-N-(7-(3-methyl-1-(3-(pyrrolidin-1-yl)propyl)-1H-pyrazol-4-yl)-1,5-naphthyridin-2-yl)-1,3,4-thiadiazole-2-amine]	–	≥ 25000	–	–	< 1000	< 1000	< 1000
CC1(C)COc2nnc(Nc3ccc4ncc(-c5cnn(CCCN6CCCC6)c5)cc4n3)cc21 [Example 0401, 5,5-Dimethyl-N-(7-(1-(3-(pyrrolidin-1-yl)propyl)-1H-pyrazol-4-yl)-1,5-naphthyridin-2-yl)-5,6-dihydrofuro[2,3-c]pyridazine-3-amine]	–	≥ 25000	–	–	< 1000	< 1000	< 1000
O=C(CCn1cc(-c2cnc3ccc(Nc4nnc(C5CCCC5)s4)nc3c2)cn1)N1CCCC1 [Example 0341, 3-(4-(6-((5-cyclopentyl-1,3,4-thiadiazol-2-yl)amino)-1,5-naphthyridin-3-yl)-1H-pyrazol-1-yl)-1-(pyrrolidin-1-yl)propan-1-one]	–	≥ 25000	–	–	< 1000	< 1000	< 1000
Cn1cc(-c2cnc3ccc(Nc4nnc(C5CCOC5)s4)nc3c2)cn1 (stereo not drawn) [Example 0243, N-(7-(1-methyl-1H-pyrazol-4-yl)-1,5-naphthyridin-2-yl)-5-(tetrahydrofuran-3-yl)-1,3,4-thiadiazole-2-amine]	–	≥ 25000	–	–	< 1000	< 1000	< 1000
CC(C)c1cnnc(Nc2ccc3ncc(-c4cnn(CCCN5CCOCC5)c4)cc3n2)c1 [Example 0368]	–	≥ 25000	–	–	< 1000	< 1000	< 1000
OCCCn1cc(-c2cnc3ccc(Nc4nnc(C5CCCC5)s4)nc3c2)cn1 [Example 0316, 3-(4-(6-((5-cyclopentyl-1,3,4-thiadiazol-2-yl)amino)-1,5-naphthyridin-3-yl)-1H-pyrazol-1-yl)propan-1-ol]	–	≥ 25000	–	–	< 1000	< 1000	< 1000
CCc1cnnc(Nc2ccc3ncc(-c4cnn(CCCN5CCCC5)c4)cc3n2)c1 [Example 0291]	–	≥ 25000	–	–	< 1000	< 1000	< 1000
CCCc1cnnc(Nc2ccc3ncc(-c4cnn(CCCN5CCCC5)c4)cc3n2)c1 [Example 0293]	–	≥ 25000	–	–	< 1000	< 1000	< 1000
c1nc2ccc(Nc3cc(C4CCC4)cnn3)nc2cc1-c1cnn(CCCN2CCCC2)c1 [Example 0015, N-(5-cyclobutylpyridazin-3-yl)-7-(1-(3-(pyrrolidin-1-yl)propyl)-1H-pyrazol-4-yl)-1,5-naphthyridine-2-amineformate]	< 1000	≥ 25000	< 1000	< 1000	–	–	–
Cc1nn(C)cc1-c1cnc2ccc(Nc3nnc(C4CCCC4)s3)nc2c1 [Example 0347]	–	≥ 25000	–	–	< 1000	< 1000	< 1000
CC(C)c1nnc(Nc2ccc3ncc(-c4cnn(CCCN5CCCC5)c4)cc3n2)s1 [Example 0365]	–	≥ 25000	–	–	< 1000	< 1000	< 1000
COc1cncc(Nc2cnc3ccc(Nc4nnc(CC5CCCO5)s4)nc3c2)c1 (stereo not drawn) [Example 0250, N^7-(5-methoxypyridin-3-yl)-N^2-(5-((tetrahydrofuran-2-yl)methyl)-1,3,4-thiadiazol-2-yl)-1,5-naphthyridine-2,7-diamine]	–	≥ 25000	–	–	< 1000	< 1000	< 1000
c1nnc(Nc2ccc3ncc(-c4cnn(CCCN5CCCC5)c4)cc3n2)s1 [Example 0322]	–	≥ 25000	–	–	< 1000	< 1000	< 1000
CC(C)c1cnnc(Nc2ccc3ncc(-c4cnn(CCN5CCOCC5)c4)cc3n2)c1 [Example 0382, N-(5-isopropylpyridazin-3-yl)-7-(1-(2-morpholinoethyl)-1H-pyrazol-4-yl)-1,5-naphthyridine-2-amine]	–	≥ 25000	–	–	< 1000	< 1000	< 1000
CC(C)c1cnnc(Nc2ccc3ncc(-c4cnn(CCCO)c4)cc3n2)c1 [Example 0473]	–	≥ 25000	–	–	< 1000	< 1000	< 1000

Compound	IC50 (human PI3Kα protein; [3]) [nM]	IC50 (CHO-K1 cells) [nM]	IC50 ([1]; 1.25 nmol/L ERK2, ATP 1 mmol/L) [nM]	IC50 [2, 4] [nM]	IC50 (human PI3Kα protein) [nM]	IC50 ([1]; ERK2 enzyme assay (2)) [nM]	IC50 ([2]; ERK2 enzyme assay (1)) [nM]
Cn1cc(-c2cnc3ccc(Nc4nnc(N5CCOCC5)s4)nc3c2)cn1 [Example 0226, N-(7-(1-methyl-1H-pyrazol-4-yl)-1,5-naphthyridin-2-yl)-5-morpholino-1,3,4-thiadiazole-2-amine]	–	≥ 25000	–	–	1000 to 10000	< 1000	< 1000
Cc1cnnc(Nc2ccc3ncc(-c4cnn(C)c4)cc3n2)c1 [Example 0139]	< 1000	≥ 25000	< 1000	< 1000	–	–	–
c1nc2ccc(Nc3nnc(CC4CCCO4)s3)nc2cc1-c1cnn(CCCN2CCCC2)c1 (stereo not drawn) [Example 0240]	–	≥ 25000	–	–	< 1000	< 1000	< 1000
Cn1cc(-c2cnc3ccc(Nc4nnc(CC5CCCO5)s4)nc3c2)cn1 (stereo not drawn) [Example 0241]	–	≥ 25000	–	–	1000 to 10000	< 1000	< 1000
OCC(O)Cn1cc(-c2cnc3ccc(Nc4nnc(C5CCCC5)s4)nc3c2)cn1 (stereo not drawn) [Example 0338, 3-(4-(6-((5-Cyclopentyl-1,3,4-thiadiazol-2-yl)amino)-1,5-naphthyridin-3-yl)-1H-pyrazol-1-yl)propane-1,2-diol]	–	≥ 25000	–	–	< 1000	< 1000	< 1000
c1cnnc(Nc2ccc3ncc(-c4cnn(CCCN5CCCC5)c4)cc3n2)c1 [Example 0137, N-(pyridazin-3-yl)-7-(1-(3-(pyrrolidin-1-yl)propyl)-1H-pyrazol-4-yl)-1,5-naphthyridine-2-amine]	< 1000	≥ 25000	< 1000	< 1000	–	–	–
CCCCc1nn(C)cc1-c1cnc2ccc(Nc3nnc(C(C)C)s3)nc2c1 [Example 0130]	< 1000	≥ 25000	< 1000	< 1000	–	–	–
CN1CCCC1c1nnc(Nc2ccc3ncc(-c4cnn(C)c4)cc3n2)s1 (stereo not drawn) [Example 0247, N-(7-(1-methyl-1H-pyrazol-4-yl)-1,5-naphthyridin-2-yl)-5-(1-methylpyrrolidin-2-yl)-1,3,4-thiadiazole-2-amine]	–	≥ 25000	–	–	1000 to 10000	< 1000	< 1000
Cc1[nH]ncc1-c1cnc2ccc(Nc3nnc(C4CCCC4)s3)nc2c1 [Example 0214]	–	≥ 25000	–	–	1000 to 10000	< 1000	< 1000
Cn1cc(-c2cnc3ccc(Nc4nnc(C5CCCO5)s4)nc3c2)cn1 (stereo not drawn) [Example 0227]	–	≥ 25000	–	–	< 1000	< 1000	< 1000
Cc1cnnc(Nc2ccc3ncc(-c4cnn(CCCN5CCCC5)c4)cc3n2)c1 [Example 0140]	< 1000	≥ 25000	< 1000	< 1000	–	–	–
CC(C)c1cnnc(Nc2ccc3ncc(-c4cnn(CCCN5CCCC5)c4)cc3n2)c1 [Example 0148]	< 1000	≥ 25000	< 1000	< 1000	–	–	–
Cc1nn(CCCN2CCOCC2)cc1-c1cnc2ccc(Nc3cc(C(C)C)cnn3)nc2c1 [Example 0384, N-(5-isopropylpyridazin-3-yl)-7-(3-methyl-1-(3-morpholinopropyl)-1H-pyrazol-4-yl)-1,5-naphthyridine-2-amine]	–	≥ 25000	–	–	< 1000	< 1000	< 1000
COc1c(-c2cnn(C)c2)cnc2ccc(Nc3nnc(C4CCCC4)s3)nc12 [Example 0355, 5-cyclopentyl-N-(8-methoxy-7-(1-methyl-1H-pyrazol-4-yl)-1,5-naphthyridin-2-yl)-1,3,4-thiadiazole-2-amine]	–	≥ 25000	–	–	< 1000	< 1000	< 1000
c1nc2ccc(Nc3cc(C4CC4)cnn3)nc2cc1-c1cnn(CCCN2CCOCC2)c1 [Example 0298, N-(5-cyclopropylpyridazin-3-yl)-7-(1-(3-morpholinopropyl)-1H-pyrazol-4-yl)-1,5-naphthyridine-2-amine]	–	≥ 25000	–	–	< 1000	–	< 1000
